Results on two molecules are retold here after patent US8168650B2, “Therapeutic uses of bicyclic ligands of sigma 2 receptor” (priority 2006, dated 2012).

A word on the Ki: it is a measure of affinity in units of concentration, obtained from inhibition or displacement. Low values mean tighter binding, high ones weaker binding.

In experiment [1] the target is T1, σ1 receptor (Cavia porcellus, UniProt Q60492).
Protocol: (§1) In vitro binding studies were conducted in order to determine the affinity of the target compounds at σ1 and σ2 receptors.
(§2) In this example, test compounds were dissolved in N,N-dimethylformamide (DMF), dimethylsulfoxide (DMSO) or ethanol and then diluted in 50 mM Tris-HCl, pH 7.4 buffer containing 150 mM NaCl and 100 mM EDTA. Membrane homogenates were made from guinea pig brain for σ1 binding assays and rat liver for σ2 binding assays. Membrane homogenates were diluted with 50 mM Tris-HCl buffer, pH 8.0, and incubated at 25° C. in a total volume of 150 μL in 96-well plates with the radioligand and test compounds with concentrations ranging from 0.1 nM to 10 μM. After incubation was completed, the reactions were terminated by the addition of 150 μL of ice-cold wash buffer (10 mM Tris-HCl, 150 mM NaCl, pH 7.4) using a 96-channel transfer pipette (Fisher Scientific, Pittsburgh, Pa.), and the samples harvested and filtered rapidly through 96-well fiberglass filter plate (Millipore, Billerica, Mass.) that had been presoaked with 100 μL of 50 mM Tris-HCl buffer, pH 8.0, for 1 h. Each filter was washed three times with 200 μL of ice cold wash buffer.
(§3) Ki values were calculated using the method of Cheng and Prusoff20 and represent mean values±SEM.
The subject of the next experiment is EMT-6 cells. The experiment is described as follows: Colony formation assay on Doxorubicin-treated EMT-6 cells. Format: cell-based, mouse. The procedure: This Example illustrates colony formation assay on Doxorubicin (“Dox”)-treated EMT-6 cells in the presence or absence of 2 μM WC-II-26. The structures of the sigma ligands used in this and subsequent examples are illustrated in FIG. 5 and FIG. 6.

The next experiment deals with Panc-02 tumors. The experiment is described as follows: Antitumor effect in vivo: tumor growth and survival, Panc-02 model. Set-up: species or system C57BL/6 mice. The note with it: listed as WC26. The procedure: Mean tumor diameter was measured three times each week.
The target of experiment [2] is T1, σ1 receptor. As to the kind of experiment: biochemical.
Protocol: as §1, §2, §3

“Also recorded” adds a separate entry of the source. Read-outs that look alike come from different tables or passages of the source.

T1 sequence (Q60492 whole entry): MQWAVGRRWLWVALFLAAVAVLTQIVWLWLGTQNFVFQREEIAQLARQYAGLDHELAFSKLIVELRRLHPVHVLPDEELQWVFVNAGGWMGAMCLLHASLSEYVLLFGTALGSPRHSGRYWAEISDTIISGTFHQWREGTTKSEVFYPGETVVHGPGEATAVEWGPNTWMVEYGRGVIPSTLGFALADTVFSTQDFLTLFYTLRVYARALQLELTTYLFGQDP

The molecule `O[C@@H](CN1C2CCC1CC(c1ccccc1)C2)c1cccc(Br)c1` (stereo partly drawn) [RHM-I-138] yielded a Ki at σ1 receptor [1] of 0.544 µM.

Take `COc1ccc(C)cc1NC(=O)O[C@H]1C[C@H]2CCC[C@@H](C1)N2Cc1ccc(N(C)C)cc1` [WC-II-26]: the “number of colonies formed compared to control cells” value in the experiment with EMT-6 cells (EMT-6, 2 μM WC-II-26 alone) was “not changed significantly”. Besides, the “ability of survival reduced (% of control)” value with EMT-6 cells (EMT-6, 2 μM WC-II-26 combined with 10 nM Dox) is on record as 38 % of control; in the experiment with EMT-6 cells (EMT-6, 2 μM WC-II-26 combined with 20 nM Dox), 77 % of control; in the experiment with EMT-6 cells (EMT-6, 2 μM WC-II-26 combined with 30 nM Dox), 86 % of control; with EMT-6 cells (EMT-6, 2 μM WC-II-26 combined with 40 nM Dox), 92 % of control. For the same molecule, the “tumor growth / tumor size versus vehicle control” value in the experiment with Panc-02 tumors (50 or 100 mg/kg (1 or 2 mg/day) intraperitoneal once a day for five days) is “tumors shrank; also recorded: smaller tumors”. In addition, the “survival (tumor diameter 15 mm or ulceration as endpoint)” value with Panc-02 tumors (50 or 100 mg/kg (1 or 2 mg/day) once a day for five days, p=0.002) was “significant survival benefit; also recorded: compared favorably”. This molecule yielded a Ki on σ1 receptor [2] of 5.57 µM.
